From publication PMC10648852, “Molecular drivers of resistance to sulbactam-durlobactam in contemporary clinical isolates of Acinetobacter baumannii” (Antimicrobial Agents and Chemotherapy, 2023)
Where “and” joins values, the source holds several entries; their conditions need not be identical. Identical values can stand only once. Like-named read-outs stand apart in the source and are kept apart here.

Columns and labels:
A. baumannii PBP3 S390T [1] = experiment: Acylation rate constant (kinact/Ki), fluorescence anisotropy competition with BOCILLIN; conditions: variant data from McLeod et al. (2018)
A. baumannii PBP3 N392T = experiment: as above; conditions: for k inact/K i: average ± SD
A. baumannii PBP3 S395F [2] = experiment: as above; conditions: variant data from McLeod et al. (2018)
A. baumannii PBP3 H370Y = experiment: as above; conditions: for k inact/K i: average ± SD
A. baumannii PBP3 S395F [3] = tested on: A. baumannii PBP3 S395F; parameters: method as in McLeod et al. (2018); conditions: average ± SD, ref McLeod et al. (2018); cited from earlier work
A. baumannii PBP3 N377Y = experiment: Acylation rate constant (kinact/Ki), fluorescence anisotropy competition with BOCILLIN; conditions: for k inact/K i: average ± SD
A. baumannii PBP3 S390T [4] = tested on: A. baumannii PBP3 S390T; parameters: method as in McLeod et al. (2018); conditions: average ± SD, ref McLeod et al. (2018); cited from earlier work
[5] = tested on: isogenic A. baylyi ADP1 panel encoding wildtype or mutant PBP3; experiment: Broth microdilution MIC, isogenic A. baylyi panel (PBP3 variants with or without overexpressed β-lactamases); assay type: cell-based; conditions: for increase in MIC values in the presence of β-lactamase: wildtype PBP3 strain
Procedure: To understand the effect of PBP3 variants on whole cell activity in the absence of other resistance determinants, the MIC values of sulbactam, SUL-DUR and comparator β-lactams were measured against an isogenic A. baylyi panel engineered to contain individual strains in which the endogenous PBP3 was replaced with the variant of interest.
Each of the A. baylyi panel members were then transformed with plasmids that constitutively expressed five distinct, representative β-lactamases commonly found in Acinetobacter clinical isolates (TEM-1, ADC-30, OXA-23, OXA-24 or OXA-66) and evaluated for changes in antibiotic susceptibility. […] . […] .
The isogenic A. baylyi panel used for chromosomal expression of various PBP3 mutants with or without constitutive expression of various β-lactamases were constructed as part of this study. The A. baylyi ADP1 PBP3 ORF was cloned into pUC19 with a gentamicin cassette inserted downstream of the PBP3 ORF for selection purposes. Additionally, 500 bp of flanking homology to the ADP1 genome were inserted upstream of the PBP3 ORF and downstream of the gentamicin cassette. […] Linear DNA consisting of the 500 bp upstream-PBP3-Gent-500 bp downstream fragment was cloned out of the pUC19 plasmid by PCR and used for transformation of the ADP1 strain. The strain was grown at 30°C overnight in LB medium shaking at 250 rpm. Seventy microliters of the overnight ADP1 culture were combined with 1 mL of fresh LB and 200 ng of linear DNA fragment and incubated for 5 h at 30°C and shaking at 200 rpm. Various dilutions of each culture were plated on LB agar supplemented with 10 µg/mL of gentamicin to select for transformants with successful chromosomal integrations. Integrants were verified by Sanger sequencing using purified genomic DNA.
For the constitutive expression of various β-lactamases, ORFs of bla TEM-1, bla ADC-30, bla OXA-23, bla OXA-24, and bla OXA-66 were cloned by PCR from various clinical strains that encode these genes and inserted into the pWH1266 plasmid modified to encode a kanamycin cassette for selection. These plasmids along with an empty vector were used to transform each of the A. baylyi ADP1 strains engineered above that encode wild-type PBP3 or variants. Transformations were carried out as done above with selection on LB agar supplemented with 20 µg/mL of kanamycin.
(§1) Antimicrobial susceptibility testing was performed using broth microdilution following standardized methods established by the Clinical Laboratory Standards Institute (CLSI) ([35], [36]). Quality control testing was performed as specified by CLSI using A. baumannii NCTC 13304 ([35]). MIC values were interpreted using CLSI breakpoints for all antimicrobial agents except those for which CLSI breakpoints are not available ([35]). SUL-DUR was tested as twofold dilutions of sulbactam in combination with a fixed concentration of 4 µg/mL durlobactam ([35]).

[6] = tested on: A. baumannii KAB1544 and efflux overexpression mutants; experiment: Broth microdilution MIC, isogenic A. baumannii overexpression efflux mutants; assay type: cell-based; conditions: for MIC: Acinetobacter baumannii; for change in MIC values relative to the parent strain: most of the AdeR and AdeS mutants (AdeABC overexpression), KAB1544
Procedure: To further assess the role of efflux in SUL-DUR activity against Acinetobacter spp., two panels of A. baumannii isogenic strains were tested. The first consisted of 7 members of an A. baumannii transposon library ([28]) with single gene disruptions in the adeABC, adeIJK, or adeT loci as compared to the parent strain, AB5075. […] This panel of strains consists of four different point mutants in AdeR and five different point mutants in AdeS, which result in the upregulation of AdeABC expression. In addition, this panel contains chromosomal deletions of adeL and adeN, which result in overexpression of AdeFGH and AdeIJK, respectively ([29]).
In contrast, sulbactam, SUL-DUR, and imipenem MIC values were unaffected by these mutants (Table 4).
The AB5075 parent strain as well as transposon interrupted AdeABC, AdeIJK, and AdeT were purchased from the Manoil laboratory at the University of Washington from their arrayed transposon mutant collection ([28]). The KAB1544 parent as well as efflux pump regulator mutants and deletions were constructed as previously described ([29]).
as §1

[7] = Acinetobacter baylyi, A. baylyi, PBP3 H370Y, overexpressed ADC-30
[8] = Acinetobacter baylyi, A. baylyi, PBP3 H370Y, overexpressed OXA-23
[9] = Acinetobacter baylyi, A. baylyi, PBP3 H370Y, overexpressed OXA-24
[10] = Acinetobacter baylyi, A. baylyi, PBP3 H370Y, overexpressed OXA-66
[11] = Acinetobacter baylyi, A. baylyi, PBP3 H370Y, overexpressed TEM-1
[12] = Acinetobacter baylyi, A. baylyi, PBP3 H370Y, β-lactamase None (empty vector)
[13] = Acinetobacter baylyi, A. baylyi, PBP3 Wildtype, overexpressed ADC-30, read-out: MIC
[14] = Acinetobacter baylyi, A. baylyi, PBP3 Wildtype, overexpressed OXA-23, read-out: MIC
[15] = Acinetobacter baylyi, A. baylyi, PBP3 Wildtype, overexpressed OXA-24, read-out: MIC
[16] = Acinetobacter baylyi, A. baylyi, PBP3 Wildtype, overexpressed OXA-66, read-out: MIC
[17] = Acinetobacter baylyi, A. baylyi, PBP3 Wildtype, overexpressed TEM-1, read-out: MIC
[18] = Acinetobacter baylyi, A. baylyi, PBP3 Wildtype, β-lactamase None (empty vector), read-out: MIC
[19] = AdeR A91V, AdeABC overexpressed, read-out: MIC
[20] = AdeR D20N, AdeABC overexpressed, read-out: MIC
[21] = AdeR E219A, AdeABC overexpressed, read-out: MIC
[22] = AdeR P116L, AdeABC overexpressed, read-out: MIC
[23] = AdeS A94V, AdeABC overexpressed, read-out: MIC
[24] = AdeS G30D, AdeABC overexpressed, read-out: MIC
[25] = AdeS G103D, AdeABC overexpressed, read-out: MIC
[26] = AdeS R152K, AdeABC overexpressed, read-out: MIC
[27] = AdeS T153M, AdeABC overexpressed, read-out: MIC
[28] = Parent (KAB1544), no efflux pump overexpressed, read-out: MIC

| SMILES | % WT (A. baumannii PBP3 N392T) | k inact/K i (A. baumannii PBP3 N392T) | % WT (A. baumannii PBP3 S395F [2]) [%] | % WT (A. baumannii PBP3 H370Y) | k inact/K i (A. baumannii PBP3 H370Y) | k inact/K i (A. baumannii PBP3 S395F [3]) | % WT (A. baumannii PBP3 N377Y) | k inact/K i (A. baumannii PBP3 N377Y) | k inact/K i (A. baumannii PBP3 S390T [4]) | MIC [5, 7] [mg/L] | MIC [5, 8] [mg/L] | MIC [5, 9] [mg/L] | MIC [5, 10] [mg/L] | MIC [5, 11] [mg/L] | MIC [5, 12] [mg/L] | MIC [5, 13] [mg/L] | MIC [5, 14] [mg/L] | MIC [5, 15] [mg/L] | MIC [5, 16] [mg/L] | MIC [5, 17] [mg/L] | further results |
| --- | --- | --- | --- | --- | --- | --- | --- | --- | --- | --- | --- | --- | --- | --- | --- | --- | --- | --- | --- | --- | --- |
| C[C@@H](O)[C@H]1C(=O)N2C(C(=O)O)=C(SCCN=CN)C[C@H]12 [imipenem] | 175.6% | 790 ± 50 ([2]) M^-1s^-1 | 2.0 | 106.7% | 480 ± 40 ([2]) M^-1s^-1 | 8.8 ± 0.7 ([3]) M^-1s^-1 | 62.2% | 280 ± 10 ([2]) M^-1s^-1 | 540 ± 40 ([3]) M^-1s^-1 | 0.03 | 4 | > 8 | 0.06 | 0.03 | 0.03 | 0.13 | 8 | 8 | 0.13 | 0.03 | % WT (A. baumannii PBP3 S390T [1]): 120%; MIC [5, 18]: 0.03 mg/L; increase in MIC values in the presence of β-lactamase ([5]; ADC-30, OXA-23, OXA-24 and OXA-66): ≥ 4 fold; MIC [6, 19]: 0.5 mg/L; MIC [6, 20]: 0.5 mg/L; MIC [6, 21]: 0.25 mg/L; MIC [6, 22]: 0.5 mg/L; MIC [6, 23]: 0.5 mg/L; MIC [6, 24]: 0.5 mg/L; MIC [6, 25]: 0.25 mg/L; MIC [6, 26]: 0.5 mg/L; MIC [6, 27]: 0.5 mg/L; MIC [6, 28]: 0.25 mg/L; MIC ([6]; ΔadeL, AdeFGH overexpressed): 0.25 mg/L; MIC ([6]; ΔadeN, AdeIJK overexpressed): 0.25 mg/L; change in MIC values relative to the parent strain [6]: unaffected |
| C[C@@H](O)[C@H]1C(=O)N2C(C(=O)O)=C(S[C@@H]3CN[C@H](C(=O)N(C)C)C3)[C@H](C)[C@H]12 [meropenem] | 164% | 8,200 ± 200 ([2]) M^-1s^-1 | 30 | 120% | 6,000 ± 10 ([2]) M^-1s^-1 | 1,500 ± 200 ([3]) M^-1s^-1 | 74% | 3,700 ± 300 ([2]) M^-1s^-1 | 16,000 ± 6,000 ([3]) M^-1s^-1 | 0.06 | 8 | > 8 | 0.5 | 0.06 | 0.06 | 0.13 | 8 | > 8 | 1 | 0.13 | MIC [5, 18]: 0.06 mg/L; increase in MIC values in the presence of β-lactamase ([5]; OXA-23, OXA-24 and OXA-66): ≥ 4 fold |
| CC1(C)[C@H](C(=O)O)N2C(=O)C[C@H]2S1(=O)=O [sulbactam] | ~ 120% | 18 ± 1 ([2]) M^-1s^-1 | 4.2 | ~ 120% and 126% | 19 ± 2 ([2]) M^-1s^-1 | 0.63 ± 0.06 ([3]) M^-1s^-1 | 60%–73% | 11 ± 2 ([2]) M^-1s^-1 | 0.03 ± 0.02 ([3]) M^-1s^-1 | 2 | > 64 | > 64 | 4 | 4 | 8 | 2 | > 64 | 16 | 8 | 16 | % WT (A. baumannii PBP3 S390T [1]): 0.2%; % WT (A. baumannii PBP3 N392T; listed as Sulbactam): 120%; % WT (A. baumannii PBP3 H370Y; listed as Sulbactam): 126.7%; % WT (A. baumannii PBP3 N377Y; listed as Sulbactam): 73.3%; MIC [5, 18]: 4 mg/L; increase in MIC values in the presence of β-lactamase ([5]; TEM-1, OXA-23 and OXA-24): ≥ 4 fold; MIC ([5]; {}): >64 mg/L; MIC [6, 19]: 1 mg/L; MIC [6, 20]: 1 mg/L; MIC [6, 21]: 2 mg/L; MIC [6, 22]: 1 mg/L; MIC [6, 23]: 1 mg/L; MIC [6, 24]: 1 mg/L; MIC [6, 25]: 2 mg/L; MIC [6, 26]: 1 mg/L; MIC [6, 27]: 1 mg/L; MIC [6, 28]: 2 mg/L; MIC ([6]; ΔadeL, AdeFGH overexpressed): 1 mg/L; MIC ([6]; ΔadeN, AdeIJK overexpressed): 2 mg/L; change in MIC values relative to the parent strain [6]: unaffected |
